The term IC50 denotes the concentration needed to halve the response being measured.

Counter-ions that a name gives are not always drawn.

Series [1] has as its system c-Myc-dependent oncogenic transformation of chicken embryo fibroblasts. As to conditions: at 20 μM; cited from earlier work.
For series [2] the following is noted: cited from earlier work.
In series [3] the target is T1, P-TEFb (Mus musculus, UniProt Q99J95).
T1 construct: endogenous in cells; host or cells: V6.5 (C57BL/6-129) murine ES cells
T1 sequence (Q99J95 whole entry): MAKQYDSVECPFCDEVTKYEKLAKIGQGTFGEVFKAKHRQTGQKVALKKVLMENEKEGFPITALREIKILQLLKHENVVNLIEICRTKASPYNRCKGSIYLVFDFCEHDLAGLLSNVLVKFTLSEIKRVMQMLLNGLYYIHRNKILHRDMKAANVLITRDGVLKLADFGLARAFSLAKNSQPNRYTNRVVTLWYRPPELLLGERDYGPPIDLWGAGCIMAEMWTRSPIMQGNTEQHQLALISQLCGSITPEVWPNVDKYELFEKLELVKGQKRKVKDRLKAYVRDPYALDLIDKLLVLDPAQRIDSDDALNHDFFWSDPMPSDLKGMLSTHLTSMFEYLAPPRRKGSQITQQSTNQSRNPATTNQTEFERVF
T1 sequence (Q9QWV9 whole entry partner): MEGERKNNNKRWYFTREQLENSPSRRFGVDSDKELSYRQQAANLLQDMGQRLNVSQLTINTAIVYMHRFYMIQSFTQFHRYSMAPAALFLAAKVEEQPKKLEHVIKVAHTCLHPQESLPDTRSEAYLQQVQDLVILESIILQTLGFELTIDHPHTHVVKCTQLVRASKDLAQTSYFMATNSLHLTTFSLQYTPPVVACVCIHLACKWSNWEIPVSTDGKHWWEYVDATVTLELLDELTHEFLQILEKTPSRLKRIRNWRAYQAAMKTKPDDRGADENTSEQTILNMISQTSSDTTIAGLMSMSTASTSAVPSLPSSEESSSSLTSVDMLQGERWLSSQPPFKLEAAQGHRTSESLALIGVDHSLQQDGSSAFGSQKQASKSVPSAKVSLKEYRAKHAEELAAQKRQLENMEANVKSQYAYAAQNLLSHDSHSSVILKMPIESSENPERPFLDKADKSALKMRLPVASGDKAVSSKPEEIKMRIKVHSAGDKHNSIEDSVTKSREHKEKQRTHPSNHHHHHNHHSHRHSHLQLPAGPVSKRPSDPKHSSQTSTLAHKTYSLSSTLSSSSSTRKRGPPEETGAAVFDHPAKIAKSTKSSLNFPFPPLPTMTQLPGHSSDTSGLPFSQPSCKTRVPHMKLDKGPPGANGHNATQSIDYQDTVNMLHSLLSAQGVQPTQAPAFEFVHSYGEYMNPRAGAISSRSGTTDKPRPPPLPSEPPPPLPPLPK
The series is described as follows: Western blot of P-TEFb target phosphorylation in flavopiridol-treated mES cells. Format: cell-based, murine. As to conditions: 1 μM flavopiridol, within 60 min.
Procedure: (A) mES cells were treated with 1 μM flavopiridol for the indicated time.
(A) mES cells were treated with the indicated flavopiridol concentration or DMSO alone (−), for 60 minutes.
To assess the role of P-TEFb-dependent pause release in global transcriptional control, we repeated the ChIP-Seq experiment for total Pol II in mES cells treated with flavopiridol, an inhibitor of Cdk9 kinase activity (Chao et al., 2000; Chao and Price, 2001; Ni et al., 2004).
V6.5 (C57BL/6-129) murine ES cells were grown under typical mES conditions on irradiated mouse embryonic fibroblasts (MEFs). […] For location analysis on mES cells following treatment with small molecule inhibitors, cells were grown two passages off feeders and prior to formaldehyde crosslinking, the cells were treated by addition of the indicated final concentration of flavopiridol (1 μM for 1 hour for ChIP-chip and ChIP-seq experiments, or the indicated concentration and time for Western blot analysis), or c-Myc/Max inhibitor 10058-F4 (50 μM for 6 hours), both dissolved in DMSO, to the growth medium. As a control, vehicle alone (DMSO) was added to the growth medium at the same final volume as with drug. Small molecule inhibitors used were: Flavopiridol (Sigma cat #F3055), and c-Myc inhibitor 10058-F4 (Sigma cat #F3680).
Western blots were done following standard protocols. Antibodies used for Western blots were as follows: Spt5: gift of Yuki Yamaguchi and Hiroshi Handa (Wada et al., 1998); NelfA: gift of Yuki Yamaguchi and Hiroshi Handa; Cdk9: Santa Cruz sc-484 and sc-8338, Ser2P Pol II: Abcam (H5 clone) ab24758; Ser5P Pol II: Abcam ab5131; Brg1: Santa Cruz sc-10768; Max: Santa Cruz sc-197; c-Myc: Santa Cruz-764; Cyclin T1: gift of David Price; Oct4: Santa Cruz sc-5279; and TBP: Abcam ab818.

Series [4] concerns the target T1, P-TEFb. The series is described as follows: Spt5 and NelfA ChIP-chip in flavopiridol-treated mES cells. Format: cell-based, murine. As to conditions: flavopiridol for 60 minutes.
Procedure: (A) Pairwise correlation analysis of Spt5, NelfA and Pol II (all) ChIP-seq occupancy in mES cells. […] (B) Western blot analysis of mES cells treated with 1 mM flavopiridol or control for 60 minutes prior. […] (C) Average gene binding for NelfA and Spt5 following 1 mM flavopiridol (red) or control (black) for 60 minutes in mES cells. The average ChIP-chip enrichment was determined in each bin (250 bp) in each condition and plotted from −4 kb to +2 kb.
We used ChIP-chip to determine if Spt5 and NelfA co-occupy promoter proximal sites with Pol II when P-TEFb activity is inhibited by flavopiridol.
Purified immunoprecipitated DNA was amplified using two rounds of ligation mediated PCR (LM PCR), as described in (Lee et al., 2006b) and the Agilent Mammalian ChIP-on-chip protocol (version 9.1, November 2006). LM-PCR immunoprecipitated DNA was labeled with Cy5, LM-PCR input DNA was labeled with Cy3 using Invitrogen Bioprime random primer labeling kit. For microarray hybridization, the Agilent Mammalian ChIP-on-chip protocol (version 9.1, November 2006) was followed. In brief, mouse Cotl DNA, Agilent blocking buffer (1× final conc.), Agilent hybridization buffer (1× final conc.), was added to Cy5- and Cy3-labeled DNA. The mixture was incubated at 95° C. for 3 minutes, followed by 37° C. for 30 minutes. Sample was centrifuged for 1 min and sample was hybridized to Agilent DNA microarray. […]
Series [5] deals with T1, P-TEFb. In words: Pol II ChIP-seq / traveling ratio in flavopiridol-treated mES cells. Format: cell-based, murine.
Procedure: (A) mES cells were treated with 1 μM flavopiridol for the indicated time. […] (B) RNA Pol II (all) ChIP-seq analysis in mES cells treated with control (DMSO for 60 minutes, black) or flavopiridol (1 μM for 60 minutes, red). […] Higher TR values indicate a higher degree of pausing.
To assess the role of P-TEFb-dependent pause release in global transcriptional control, we repeated the ChIP-Seq experiment for total Pol II in mES cells treated with flavopiridol, an inhibitor of Cdk9 kinase activity (Chao et al., 2000; Chao and Price, 2001; Ni et al., 2004). […] If Pol II pause release is required at transcribed genes, we would expect that in the presence of flavopiridol, Pol II molecules would remain associated with promoter proximal pause sites but be depleted from DNA further downstream. […] We analyzed traveling ratios to further evaluate changes in Pol II occupancy genome-wide.
V6.5 (C57BL/6-129) murine ES cells were grown under typical mES conditions on irradiated mouse embryonic fibroblasts (MEFs). For location analysis, cells were grown for two passages off of MEFs, on gelatinized tissue-culture plates. […]
To quantify this effect, we have developed a measure called Traveling Ratio (TR) that compares the ratio between Pol II density in the promoter and in the gene region. […]
The conditions of series [6]: cited from earlier work. This is another data set of the same source.
For a further series, the system named is HL60 cells. As to conditions: read-out: IC50 on HL60 cells (growth inhibition); cited from earlier work.
For series [7], the target named is T2, c-Myc/Max (Mus musculus, UniProt P01108).
T2 construct: endogenous in cells; host or cells: V6.5 (C57BL/6-129) murine ES cells
T2 sequence (P01108 whole entry): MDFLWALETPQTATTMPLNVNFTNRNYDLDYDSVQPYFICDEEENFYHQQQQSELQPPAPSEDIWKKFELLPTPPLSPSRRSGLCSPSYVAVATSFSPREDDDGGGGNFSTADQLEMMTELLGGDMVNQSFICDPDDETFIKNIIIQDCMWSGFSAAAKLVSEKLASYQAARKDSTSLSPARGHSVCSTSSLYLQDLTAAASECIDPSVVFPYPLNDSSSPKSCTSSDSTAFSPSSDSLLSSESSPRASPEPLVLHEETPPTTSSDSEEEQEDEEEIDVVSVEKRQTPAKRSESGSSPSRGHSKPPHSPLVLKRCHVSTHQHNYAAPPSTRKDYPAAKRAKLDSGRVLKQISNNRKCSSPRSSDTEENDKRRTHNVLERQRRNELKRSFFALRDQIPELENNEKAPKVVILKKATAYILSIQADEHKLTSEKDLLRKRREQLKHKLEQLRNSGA
In words: Pol II ChIP-seq / traveling ratio in 10058-F4-treated mES cells. As to conditions: 50 μM for 6 hours. Format: cell-based, murine. The protocol:
(§1) FIGS. 6A to 6E. c-Myc inhibition effects transcription at the pause release step. (A) RNA was extracted from mES cells treated with 10058-F4 or vehicle alone (DMSO) for 6 hours and used to generate cDNA using reverse transcription. Expression change was calculated for 10058-F4 treated cells compared vehicle alone control for two non-c-Myc target genes (Brg1, Rnf2-green) and five c-Myc target genes (Bax, Nol5, Zfp451, Brca2 and Atic—blue) from two independent experiments. Error bars represent s.d. from triplicate qPCR reactions. (B) mES cells were treated with 10058-F4 for either 1.5, 6 or 12 hours. Extracts were analyzed using Western blot using antibodies against Pol II Ser2P CTD, Pol II Ser5P CTD and Cdk9 to determine the levels of the modified forms of Pol II. TBP was used as a loading control. (C) Pol II ChIP-seq binding profiles in mES cells treated with 10058-F4 (c-Myc/Max inhibitor; blue), vehicle alone (black), or flavopiridol (P-TEFb inhibitor; red). Pol II occupancy is shown for three c-Myc target genes (Ncl, Npm1 and Nol5) and two non-cMyc target gene (Txnip and Chpf2). Cells were treated with 10058-F4 or DMSO for 6 hours. See also FIG. 14. (D) Average Pol II binding plots for the high confidence cMyc targets and non-c-Myc target genes in no drug (black), and 10058-F4 treatment (blue). […] The right panel is a close up of the transcribed region to show the difference in amounts of elongating Pol II density under the different conditions. Also included in the right panel for comparison is elongating Pol II density following flavopiridol treatment (red). (E) Pol II traveling ratio (TR) as described in FIG. 1C for the high confidence c-Myc target genes and non-c-Myc target genes following 10058-F4 treatment (blue) or no drug (black). The left panel is the TR for the c-Myc targets and right panel is the TR for non-c-Myc targets. Higher TR values indicate a higher degree of pausing in this gene set.
If c-Myc regulates pause release, then inhibition by 10058-F4 should have an effect on Pol II levels in promoter and gene bodies similar to that of flavopiridol, but only at c-Myc occupied genes. […]
We carried out a more global analysis of the effect of 10058-F4 on Pol II occupancy of genes bound by c-Myc and compared these patterns to genes that are not bound by this factor but show evidence of elongation (FIG. 6D). […] A similar shift in TR at the c-Myc target genes was also detected following c-Myc shRNA knockdown, indicating genes become more paused (FIG. 14F). […]
RNAPolII—10058F4Treated_Tracks.WIG.gz—contains two ChIP-seq datasets mapped to mouse genome mm8 using a +200 bp extension model that can be uploaded to the UCSC genome browser to view binding events. The ChIP experiments were done using the N20 Pol II antibody (sc-899) to determined total Pol II occupancy. […]

The target of series [8] is T2, c-Myc/Max. In words: expression analysis (quantitative PCR) in 10058-F4-treated mES cells. Format: cell-based, murine. As to conditions: 50 μM for 6 hours. As for the experimental part:
FIGS. 6A to 6E. c-Myc inhibition effects transcription at the pause release step. (A) RNA was extracted from mES cells treated with 10058-F4 or vehicle alone (DMSO) for 6 hours and used to generate cDNA using reverse transcription. Expression change was calculated for 10058-F4 treated cells compared vehicle alone control for two non-c-Myc target genes (Brg1, Rnf2-green) and five c-Myc target genes (Bax, Nol5, Zfp451, Brca2 and Atic—blue) from two independent experiments. Error bars represent s.d. from triplicate qPCR reactions. (B) mES cells were treated with 10058-F4 for either 1.5, 6 or 12 hours. Extracts were analyzed using Western blot using antibodies against Pol II Ser2P CTD, Pol II Ser5P CTD and Cdk9 to determine the levels of the modified forms of Pol II. TBP was used as a loading control. […]
To more directly test whether c-Myc regulates pause release and the associated Pol II CTD phosphorylation at Ser2, we used a low molecular weight inhibitor of c-Myc/Max, 10058-F4, which inhibits c-Myc/Max heterodimerization both in vitro and in vivo (Hammoudeh et al., 2009; Wang et al., 2007; Yin et al., 2003). Max co-occupies c-Myc binding sites as determined by ChIP, confirming that c-Myc and Max function together at target genes in ES cells (FIG. 14A). […]

Series [9] addresses T2, c-Myc/Max. In words: Western blot of 10058-F4-treated mES cells. Format: cell-based, murine. As for the experimental part:
as §1, with “Also included in the right panel for comparison is elongating Pol II density following flavopiridol treatment (red). (E) Pol II traveling ratio (TR) as described in FIG. 1C for the high confidence c-Myc target genes and non-c-Myc target genes following 10058-F4 treatment (blue) or no drug (black). The left panel is the TR for the c-Myc targets and right panel is the TR for non-c-Myc targets. Higher TR values indicate a higher degree of pausing in this gene set.” left out
FIGS. 14A to 14F. […] Max ChIP DNA was analyzed using qPCR at the selected binding sites and enrichment was calculated for replicate PCR reactions over input DNA at each region. […] Protein extracts were analyzed using Western blots and probed with antibodies against CycT1 and Cdk9. […] ES cells were infected for 24 hours, then selected for 72 hours prior to harvesting. c-Myc levels were determined using RT-PCR analysis and normalized against a Gapdh control. […] ES cells were infected for 24 hours, then selected for 72 hours prior to harvesting. c-Myc levels were determined using Western blot analysis using an antibody against c-Myc. […]
(A western blot detects proteins with antibodies after separation by electrophoresis.)

A further series deals with c-Myc (Homo sapiens, UniProt P01106). The following applies: relative to parent compound 10058-F4; cited from earlier work.
Chain of c-Myc (P01106 whole entry): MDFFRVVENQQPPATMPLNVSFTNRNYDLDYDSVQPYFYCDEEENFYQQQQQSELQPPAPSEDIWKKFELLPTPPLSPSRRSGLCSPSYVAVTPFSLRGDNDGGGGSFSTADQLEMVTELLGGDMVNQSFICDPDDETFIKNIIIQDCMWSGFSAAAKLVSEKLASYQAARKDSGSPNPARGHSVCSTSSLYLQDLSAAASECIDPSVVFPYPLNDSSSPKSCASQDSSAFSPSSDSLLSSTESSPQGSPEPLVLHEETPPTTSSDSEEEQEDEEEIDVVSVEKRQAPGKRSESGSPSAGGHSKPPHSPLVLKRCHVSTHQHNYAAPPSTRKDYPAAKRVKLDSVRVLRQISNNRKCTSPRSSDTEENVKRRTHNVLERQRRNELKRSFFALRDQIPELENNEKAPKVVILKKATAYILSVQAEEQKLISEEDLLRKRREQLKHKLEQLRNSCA
The mark [10] stands for this setting: ES cells treated with 10058-F4 for 1.5, 6 or 12 hours.

As to `COc1ccc(CN(C(=O)c2ccccn2)C(C(=O)NC2CCCCC2)c2ccc3cc(OCC(=O)OC(C)(C)C)ccc3c2)cc1` (centres unmarked) [NY2267], the “inhibition of c-Myc-dependent oncogenic transformation” value in [1] is recorded as “strongly inhibited”.

Regarding `CN1CC[C@H](c2c(O)cc(O)c3c(=O)cc(-c4ccccc4Cl)oc23)[C@H](O)C1` [flavopiridol, (−)-2-(2-Chlorophenyl)-5,7-dihydroxy-8-[(3S,4R)-3-hydroxy-1-methyl-4-piperidinyl]-4H-1-benzopyran-4-one hydrochloride], the main side effects entry in series [2] (doses achieving plasma levels of approximately 400 nM, 72 hour treatment) was “fatigue, venous thromboses, and diarrhea”. For the same molecule, the plasma flavopiridol levels result in [2] (during a 72 hour treatment period) is listed as “approximately 400 nM”. Also, on P-TEFb [3], the “Ser5 phosphorylation of Pol II” value is “remained unaffected”, the “phosphorylation of Pol II Ser2” value was “reduced phosphorylation” and the “phosphorylation of Spt5” value is given as “reduced phosphorylation”. The “Spt5 occupancy downstream of promoter proximal sites” value on P-TEFb [4] is recorded as “depleted”. Also, the “genes with a change in Pol II TR of at least 1.5 upon drug treatment” value at P-TEFb [5] (1 μM for 60 minutes) was found to be 75%. Also, the “pause release at genes that are not targets of c-Myc” value on P-TEFb [5] (flavopiridol treatment, Pol II ChIP-seq) was “block in pause release”.

Take `CC[C@H](CO)Nc1nc(NCc2ccccc2)c2ncn(C(C)C)c2n1` [roscovitine, 2-(R)-(1-Ethyl-2-hydroxyethylamino)-6-benzylamino-9-isopropyl purine]: in series [6] (at 800 mg b.i.d.), the dose-limiting toxicities result was “grade 3 fatigue, grade 3 skin rash, grade 3 hyponatraemia and grade 4 hypokalaemia”. For the same molecule, the “dose at which dose-limiting toxicities were seen” value in series [6] (patients with solid tumors, 7-day b.i.d. p.o. schedule) is reported as 800 mg b.i.d.

`CCc1ccc(/C=C2\SC(=S)NC2=O)cc1` [10058-F4]: the IC50 with HL60 cells was 49 µM. At c-Myc/Max [7], the “TR at c-Myc target genes” value is on record as “substantial increase” and the “TR at non-c-Myc targets” value was “no such shift”. In addition, the “Pol II density in transcribed regions” value on c-Myc/Max [7] (c-Myc targets, gene body p=7.341e-06) is given as “clear reduction”. For the same molecule, at c-Myc/Max [7] (c-Myc targets, p=0.4536), the “Pol II density at promoters” value is recorded as “little effect”. On c-Myc/Max [8], the “decrease in the expression of c-Myc target genes” value was 20-40% and the “expression of two non-c-Myc target genes” value is “did not affect”. At c-Myc/Max [9] (setting [10]), the “levels of Pol II Ser2P” value is “significant reduction” and the “levels of Pol II Ser5P” value is “remained unaffected”. In addition, the “protein levels of P-TEFb components Cdk9 or CycT1” value at c-Myc/Max [9] (mES cells, 10058-F4 for 6 hours) is listed as “did not alter”.

For `CC(C)c1ccc(/C=C2\SC(=S)N(CN3CCCCC3)C2=O)cc1` [28RH-NCN-1], the IC50 in the series with HL60 cells was 29 µM. Moreover, on c-Myc, the “inhibition of DNA binding of c-Myc” value is “comparable to that of the parent compound”.

The record behind these values is patent US9155724B2, “Combination methods for treatment of disease” (Whitehead Institute for Biomedical Research, priority 2010, dated 2015).
